According to PubChem BioAssay (NCI):
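1) Cells in 96-well plates. 2) Compound, 48 h, 5 concentrations. 3) Linear interpolation between surrounding doses. 4) Unreached endpoint = highest concentration. GI50: concentration for 50% inhibition of growth. At the TGI there is no net growth.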

Tests used:
Assay in all cases: DTP human tumour cell line panel, 48 h; in the data active = GI50 below about 0.43 µM; inactive = the rest
SF-295 CNS = tested on: SF-295 CNS
ACHN renal = tested on: ACHN renal
HOP-62 NSCLC = tested on: HOP-62 NSCLC
SF-539 CNS = tested on: SF-539 CNS
CCRF-CEM leukemia = tested on: CCRF-CEM leukemia
MALME-3M melanoma = tested on: MALME-3M melanoma
LOX IMVI melanoma = tested on: LOX IMVI melanoma
OVCAR-5 ovarian = tested on: OVCAR-5 ovarian
UACC-62 melanoma = tested on: UACC-62 melanoma
NCI/ADR-RES ovarian = tested on: NCI/ADR-RES ovarian
HL-60(TB) leukemia = tested on: HL-60(TB) leukemia
CAKI-1 renal = tested on: CAKI-1 renal
HCT-15 colon = tested on: HCT-15 colon
MCF7 breast = tested on: MCF7 breast
UO-31 renal = tested on: UO-31 renal
DU-145 prostate = tested on: DU-145 prostate
NCI-H23 lung = tested on: NCI-H23 lung
SN12C renal = tested on: SN12C renal
786-0 renal = tested on: 786-0 renal
SK-MEL-28 melanoma = tested on: SK-MEL-28 melanoma
SK-OV-3 ovarian = tested on: SK-OV-3 ovarian
K-562 leukemia = tested on: K-562 leukemia
A498 renal = tested on: A498 renal
SNB-75 CNS = tested on: SNB-75 CNS
TK-10 renal = tested on: TK-10 renal
HOP-92 NSCLC = tested on: HOP-92 NSCLC
MDA-MB-435 = tested on: MDA-MB-435
HCC-2998 colon = tested on: HCC-2998 colon
MOLT-4 leukemia = tested on: MOLT-4 leukemia
SF-268 CNS = tested on: SF-268 CNS
HS 578T breast = tested on: HS 578T breast
NCI-H460 lung = tested on: NCI-H460 lung
M14 melanoma = tested on: M14 melanoma
HCT-116 colon = tested on: HCT-116 colon
RXF 393 renal = tested on: RXF 393 renal
T-47D breast = tested on: T-47D breast
IGROV1 ovarian = tested on: IGROV1 ovarian
PC-3 prostate = tested on: PC-3 prostate
OVCAR-8 ovarian = tested on: OVCAR-8 ovarian
NCI-H522 lung = tested on: NCI-H522 lung
SK-MEL-5 melanoma = tested on: SK-MEL-5 melanoma
RPMI-8226 leukemia = tested on: RPMI-8226 leukemia
UACC-257 melanoma = tested on: UACC-257 melanoma
A549 NSCLC = tested on: A549 NSCLC
HT29 colon = tested on: HT29 colon
KM12 colon = tested on: KM12 colon
SK-MEL-2 melanoma = tested on: SK-MEL-2 melanoma
SNB-19 CNS = tested on: SNB-19 CNS
COLO 205 colon = tested on: COLO 205 colon
BT-549 breast = tested on: BT-549 breast
SW-620 colon = tested on: SW-620 colon
MDA-MB-231 breast = tested on: MDA-MB-231 breast
NCI-H226 lung = tested on: NCI-H226 lung
U251 CNS = tested on: U251 CNS
SR leukemia = tested on: SR leukemia
EKVX NSCLC = tested on: EKVX NSCLC
OVCAR-4 ovarian = tested on: OVCAR-4 ovarian

NC(N)=Nc1ccc(Oc2cccc(Nc3ccc(Cl)c(C(F)(F)F)c3)c2)cc1
6.51 µM: TGI (K-562 leukemia)
2.65 µM: TGI (HOP-92 NSCLC)
4.75 µM: TGI (TK-10 renal)
4.36 µM: TGI (HCT-15 colon)
4.62 µM: TGI (HS 578T breast)
2940 nM: TGI (OVCAR-5 ovarian)
inactive: GI50 (SF-295 CNS) 1660 nM | GI50 (ACHN renal) 2790 nM | GI50 (HOP-62 NSCLC) 1600 nM | GI50 (SF-539 CNS) 1710 nM | GI50 (CCRF-CEM leukemia) 2680 nM | GI50 (MALME-3M melanoma) 1720 nM | GI50 (LOX IMVI melanoma) 1690 nM | GI50 (OVCAR-5 ovarian) 1560 nM | GI50 (UACC-62 melanoma) 1750 nM | GI50 (NCI/ADR-RES ovarian) 14.8 µM | GI50 (HL-60(TB) leukemia) 1990 nM | GI50 (CAKI-1 renal) 1730 nM | GI50 (HCT-15 colon) 1920 nM | GI50 (MCF7 breast) 1720 nM | GI50 (UO-31 renal) 2950 nM | GI50 (DU-145 prostate) 1980 nM | GI50 (NCI-H23 lung) 1710 nM | GI50 (SN12C renal) 1690 nM | GI50 (786-0 renal) 1620 nM | GI50 (SK-MEL-28 melanoma) 1740 nM | GI50 (SK-OV-3 ovarian) 2690 nM | GI50 (K-562 leukemia) 2500 nM | GI50 (A498 renal) 1640 nM | GI50 (SNB-75 CNS) 1200 nM | GI50 (TK-10 renal) 1.94 µM | GI50 (HOP-92 NSCLC) 1290 nM | GI50 (MDA-MB-435) 1670 nM | GI50 (HCC-2998 colon) 1750 nM | GI50 (MOLT-4 leukemia) 1950 nM | GI50 (SF-268 CNS) 1580 nM | GI50 (HS 578T breast) 1930 nM | GI50 (NCI-H460 lung) 1880 nM | GI50 (M14 melanoma) 1820 nM | GI50 (HCT-116 colon) 1620 nM | GI50 (RXF 393 renal) 1620 nM | GI50 (T-47D breast) 1750 nM | GI50 (IGROV1 ovarian) 1270 nM | GI50 (PC-3 prostate) 1540 nM
3 µM: TGI (PC-3 prostate)
3.48 µM: TGI (MCF7 breast)
3.2 µM: TGI (A498 renal)
3.19 µM: TGI (786-0 renal)
3.13 µM: TGI (HCT-116 colon)
3.15 µM: TGI (LOX IMVI melanoma)
3.68 µM: TGI (MALME-3M melanoma)
4.29 µM: TGI (HL-60(TB) leukemia)
3.14 µM: TGI (SF-539 CNS)
4.57 µM: TGI (MOLT-4 leukemia)
3.05 µM: TGI (SF-268 CNS) | TGI (RXF 393 renal)
3.23 µM: TGI (UACC-62 melanoma)
11.7 µM: TGI (UO-31 renal)
3.57 µM: TGI (CAKI-1 renal)
3.56 µM: TGI (NCI-H460 lung)
6.67 µM: TGI (SK-OV-3 ovarian)
3.72 µM: TGI (DU-145 prostate)
2.5 µM: TGI (SNB-75 CNS)
3.16 µM: TGI (HOP-62 NSCLC) | TGI (SK-MEL-28 melanoma)
3.21 µM: TGI (SF-295 CNS) | TGI (NCI-H23 lung)
8.47 µM: TGI (ACHN renal)
2740 nM: TGI (IGROV1 ovarian)
3.45 µM: TGI (SN12C renal) | TGI (M14 melanoma)
3.95 µM: TGI (T-47D breast)
3.24 µM: TGI (HCC-2998 colon)
8.96 µM: TGI (CCRF-CEM leukemia)
34.3 µM: TGI (NCI/ADR-RES ovarian)
3080 nM: TGI (MDA-MB-435)

COc1ccc(Cn2cc3c(c2-c2cc(OC)c(OC)c(OC)c2)CCCc2cnoc2-3)cc1N
6.4 µM: TGI (HS 578T breast)
633 nM: TGI (MDA-MB-435)
> 67.7 µM: TGI (SK-MEL-28 melanoma)
> 100000 nM: TGI (OVCAR-5 ovarian) | TGI (IGROV1 ovarian)
4.82 µM: TGI (HOP-92 NSCLC)
> 33.4 µM: TGI (RPMI-8226 leukemia)
active: GI50 (NCI-H522 lung) 306 nM | GI50 (SF-539 CNS) 426 nM | GI50 (HL-60(TB) leukemia) 333 nM | GI50 (MCF7 breast) 392 nM | GI50 (K-562 leukemia) 404 nM | GI50 (A498 renal) 407 nM | GI50 (SNB-75 CNS) 384 nM | GI50 (MDA-MB-435) 240 nM | GI50 (HS 578T breast) 404 nM | GI50 (NCI-H460 lung) 410 nM | GI50 (HCT-116 colon) 423 nM | GI50 (RXF 393 renal) 412 nM | GI50 (SR leukemia) 405 nM
2730 nM: TGI (BT-549 breast)
1530 nM: TGI (NCI-H522 lung)
4.32 µM: TGI (SF-539 CNS)
> 100 µM: TGI (SF-295 CNS) | TGI (ACHN renal) | TGI (OVCAR-8 ovarian) | TGI (HOP-62 NSCLC) | TGI (CCRF-CEM leukemia) | TGI (LOX IMVI melanoma) | TGI (UACC-257 melanoma) | TGI (UACC-62 melanoma) | TGI (NCI/ADR-RES ovarian) | TGI (A549 NSCLC) | TGI (HT29 colon) | TGI (KM12 colon) | TGI (CAKI-1 renal) | TGI (SK-MEL-2 melanoma) | TGI (SNB-19 CNS) | TGI (HCT-15 colon) | TGI (MCF7 breast) | TGI (UO-31 renal) | TGI (DU-145 prostate) | TGI (NCI-H23 lung) | TGI (SN12C renal) | TGI (786-0 renal) | TGI (SK-OV-3 ovarian) | TGI (K-562 leukemia) | TGI (TK-10 renal) | TGI (SW-620 colon) | TGI (MOLT-4 leukemia) | TGI (SF-268 CNS) | TGI (NCI-H460 lung) | TGI (M14 melanoma) | TGI (MDA-MB-231 breast) | TGI (HCT-116 colon) | TGI (NCI-H226 lung) | TGI (U251 CNS) | TGI (T-47D breast) | TGI (SR leukemia) | TGI (EKVX NSCLC) | TGI (PC-3 prostate) | TGI (OVCAR-4 ovarian)
2140 nM: TGI (COLO 205 colon)
9.22 µM: TGI (SNB-75 CNS)
2.88 µM: TGI (A498 renal)
3.7 µM: TGI (RXF 393 renal)
> 32 µM: TGI (HCC-2998 colon)
inactive: GI50 (SF-295 CNS) 468 nM | GI50 (ACHN renal) 669 nM | GI50 (OVCAR-8 ovarian) 2140 nM | GI50 (SK-MEL-5 melanoma) 1010 nM | GI50 (HOP-62 NSCLC) 814 nM | GI50 (CCRF-CEM leukemia) 430 nM | GI50 (LOX IMVI melanoma) 643 nM | GI50 (OVCAR-5 ovarian) 1840 nM | GI50 (RPMI-8226 leukemia) 935 nM | GI50 (UACC-257 melanoma) 578 nM | GI50 (UACC-62 melanoma) 489 nM | GI50 (NCI/ADR-RES ovarian) 0.699 µM | GI50 (A549 NSCLC) 1450 nM | GI50 (HT29 colon) 442 nM | GI50 (KM12 colon) 632 nM | GI50 (CAKI-1 renal) 491 nM | GI50 (SK-MEL-2 melanoma) 651 nM | GI50 (SNB-19 CNS) 734 nM | GI50 (HCT-15 colon) 543 nM | GI50 (COLO 205 colon) 532 nM | GI50 (UO-31 renal) 761 nM | GI50 (DU-145 prostate) 1450 nM | GI50 (BT-549 breast) 436 nM | GI50 (NCI-H23 lung) 1750 nM | GI50 (SN12C renal) 1750 nM | GI50 (786-0 renal) 823 nM | GI50 (SK-MEL-28 melanoma) 3050 nM | GI50 (SK-OV-3 ovarian) 957 nM | GI50 (TK-10 renal) 98.3 µM | GI50 (SW-620 colon) 449 nM | GI50 (HOP-92 NSCLC) 432 nM | GI50 (HCC-2998 colon) 1670 nM | GI50 (MOLT-4 leukemia) 1110 nM | GI50 (SF-268 CNS) 1140 nM | GI50 (M14 melanoma) 501 nM | GI50 (MDA-MB-231 breast) 1580 nM | GI50 (NCI-H226 lung) 1590 nM | GI50 (U251 CNS) 768 nM | GI50 (T-47D breast) 590 nM | GI50 (EKVX NSCLC) 2430 nM | GI50 (IGROV1 ovarian) 1040 nM | GI50 (PC-3 prostate) 463 nM | GI50 (OVCAR-4 ovarian) 5.13 µM
> 37.2 µM: TGI (SK-MEL-5 melanoma)
